The values below come from patent US6838476B1, “Imidazoles with anti-inflammatory activity” (J. Uriach & Cia, SA, priority 1998, dated 2005).

Structures are written as SMILES.

The target in data set [1] is T1, cyclooxygenase-1 (COX-1) (Homo sapiens, UniProt P23219).
T1 construct: from tissue; host or cells: heparinized human whole blood
The data set can be described thus: Inhibition of cyclooxygenase-1 (COX-1) activity in human blood (thromboxane B2 levels after ionophore A23187). The class given is cell-based. The conditions noted are these: for % inhibition COX-1 (10 μM): 10 μM test compound; for inhibition at 10 µM: read-out: % inhibition COX-1 (10 μM), 10 μM test compound. As for the experimental part: (§1) Inhibition of cyclooxgenase-1 (COX-1) and cyclooxygenase-2 (COX-2) Activity in Human Blood
Heparinized human blood from healthy volunteers who had not taken non-steroidal anti-inflammatory drugs (NSAIDs) for a week, and neither alcohol nor xanthines 24 h before blood collection, is used. Blood is divided into two groups; one will be used to determine COX-1 activity and the other one for COX-2. The procedure to follow will be different in each case.
For COX-1, 12-mL tubes are used. 5 μL of the test compound (in DMSO solution; in duplicate) are placed in each tube. Aditionally two tubes for blanks and two tubes for controls containing 5 μL of DMSO are used. Next, 1 mL of blood is added to each tube and they are stirred. The tubes are placed in a thermostatized bath at 37° C. for 5 h. Then, 5 μL of 5 mM ionophore A23187 is added to each tube, except to the blanks, and tubes are incubated for 30 min more at 37° C. After this time, the tubes are placed in ice and 100 μL of a 100 mM EGTA solution is added to stop the reaction. 2.5 mL of methanol is added to each tube to reach a final concentration of 70%. The tubes are stirred and frozen at −70° C. till their use. The COX-1 activity is determined by measuring thromboxane B2 levels in the samples. Blood is defrozen and centrifuged at 2000 g for 10 min at 4° C. 1 mL of supematant is evaporated under nitrogen to dryness. The solid residue thus obtained is resuspended in 1 mL of saline and the thromboxane B2 levels in these samples are determined using a kit (Kit Thromboxane B2, Biotrak EIA system RPN220 Amershan), according to the manufacturer's instructions.

Data set [2] addresses T2, cyclooxygenase-2 (COX-2) (Homo sapiens, UniProt P35354).
T2 construct: 5 μL of LPS is also added (in order to induce COX-2 activy); from tissue; host or cells: heparinized human whole blood, LPS-stimulated, with aspirin added
T2 sequence (P35354 18-604): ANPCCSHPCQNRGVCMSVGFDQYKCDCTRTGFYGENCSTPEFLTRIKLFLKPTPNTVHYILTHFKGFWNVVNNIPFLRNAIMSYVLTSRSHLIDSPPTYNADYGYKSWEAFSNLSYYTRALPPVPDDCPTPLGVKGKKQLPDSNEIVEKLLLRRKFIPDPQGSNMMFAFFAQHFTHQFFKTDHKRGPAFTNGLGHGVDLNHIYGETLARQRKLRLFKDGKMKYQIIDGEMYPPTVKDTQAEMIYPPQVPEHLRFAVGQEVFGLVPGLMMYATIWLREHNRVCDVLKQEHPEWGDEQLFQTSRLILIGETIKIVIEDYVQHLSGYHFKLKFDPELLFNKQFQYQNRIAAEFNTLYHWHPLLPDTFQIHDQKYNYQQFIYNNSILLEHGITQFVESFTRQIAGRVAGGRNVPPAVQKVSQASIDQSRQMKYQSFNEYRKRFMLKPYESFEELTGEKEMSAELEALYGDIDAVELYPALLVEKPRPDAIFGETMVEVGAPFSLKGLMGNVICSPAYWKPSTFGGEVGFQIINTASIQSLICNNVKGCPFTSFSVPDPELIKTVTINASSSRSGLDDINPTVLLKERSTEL
The data set can be described thus: Inhibition of cyclooxygenase-2 (COX-2) activity in human blood (prostaglandin E2 levels after LPS, aspirin added). To be noted: for % inhibition COX-2 (1 μM): 1 μM test compound; for % inhibition COX-2 (10 μM): 10 μM test compound; for inhibition at 1 µM: read-out: % inhibition COX-2 (1 μM), 1 μM test compound; for inhibition at 10 µM: read-out: % inhibition COX-2 (10 μM), 10 μM test compound. Type of data set: cell-based. On the procedure: as §1
Blood is divided into two groups; one will be used to determine COX-1 activity and the other one for COX-2. The procedure to follow will be different in each case.
For COX-2, 3-mL tubes are prepared in duplicate containing 5 μL of the test compound (solution in DMSO) and 5 μL of vehicle in the case of blanks and controls. To each tube, 5 μL of a 2 mg/mL solution of aspirin in DMSO is also added (in order to inhibit COX-1 activity), and to all tubes except the blanks 5 μL of LPS is also added (in order to induce COX-2 activy). Finally, 1 mL of heparinized blood is added to each tube, and tubes are then stirred and placed in a thermostatized bath at 37° C. for 24 h. Then, tubes are centrifuged at 2000 g for 10 min at 4° C., the resulting plasma is collected and is frozen at −70° C. until use. COX-2 activity is determined by measuring prostaglandin E2 levels in the samples. The plasma stored at −70° C. is defrozen and prostaglandin E2 levels in these samples are determined using a kit (Kit Prostaglandin E2, Biotrak EIA system RPN222 Amershan), according to the manufacturer's instructions.

T1 sequence (P23219 24-599): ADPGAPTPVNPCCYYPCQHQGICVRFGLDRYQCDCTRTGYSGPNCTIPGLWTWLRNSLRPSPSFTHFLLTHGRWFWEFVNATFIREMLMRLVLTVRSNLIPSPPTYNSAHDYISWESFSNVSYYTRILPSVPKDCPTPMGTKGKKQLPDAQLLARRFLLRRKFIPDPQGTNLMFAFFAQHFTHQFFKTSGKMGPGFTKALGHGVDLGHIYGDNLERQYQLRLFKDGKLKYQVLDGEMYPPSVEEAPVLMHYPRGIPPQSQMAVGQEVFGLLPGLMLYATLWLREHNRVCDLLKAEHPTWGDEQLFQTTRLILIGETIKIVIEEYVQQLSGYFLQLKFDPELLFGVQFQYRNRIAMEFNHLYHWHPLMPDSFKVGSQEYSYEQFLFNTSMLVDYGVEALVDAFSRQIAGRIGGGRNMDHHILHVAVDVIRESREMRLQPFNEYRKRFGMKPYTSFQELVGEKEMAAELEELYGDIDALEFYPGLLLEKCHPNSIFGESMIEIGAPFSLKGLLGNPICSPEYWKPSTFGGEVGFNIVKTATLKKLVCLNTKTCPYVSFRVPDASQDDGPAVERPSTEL

In the case of `CS(=O)(=O)c1ccc(-n2cnc(Cl)c2-c2ccc(Cl)nc2Cl)cc1` [4(17)], in data set [1], the “% inhibition COX-1 (10 μM)” value worked out at 22.7%. For the same compound, in data set [2], the “% inhibition COX-2 (1 μM)” value is on record as 65% and the “% inhibition COX-2 (10 μM)” value was determined as 86.3%.

In the case of `CCOc1ccc(-c2c(Cl)ncn2-c2ccc(S(C)(=O)=O)cc2)cc1` [4(22), 4-Chloro-5-(4-ethoxyphenyl)-1-(4-methylsulfonylphenyl)imidazole], the inhibition at 10 µM in data set [1] came out at 72.1%. In data set [2], the inhibition at 1 µM was determined as 100% and the inhibition at 10 µM worked out at 100%.

Regarding `Cc1ccc(-c2c(Cl)ncn2-c2ccc(S(N)(=O)=O)cc2)cc1` [13(3), 4-[4-Chloro-5-(4-methylphonyl)imidazol-1-yl]benzenesulfonamide], the “% inhibition COX-1 (10 μM)” value in data set [1] amounted to 71.3%. Moreover, in data set [2], the “% inhibition COX-2 (1 μM)” value was found to be 76.1% and the “% inhibition COX-2 (10 μM)” value is 100%.

Turning to `Cc1ncn(-c2ccc(S(C)(=O)=O)cc2)c1-c1ccc(F)cc1` [Example 3, 5-(4-Fluorophenyl)-4-methyl-1-(4-methylsulfonylphenyl)imidazole], the inhibition at 10 µM was 8.3% in data set [1] and 86.5% in data set [2].

Take `CS(=O)(=O)c1ccc(-n2cnc(Cl)c2-c2ccc(F)cc2)cc1` [Example 4, 4-Chloro-5-(4-fluorophenyl)-1-(4-methylsulfonylphenyl)imidazole]: the inhibition at 10 µM in data set [1] stood at 37.8%. Moreover, in data set [2], the inhibition at 1 µM was 89% and the inhibition at 10 µM is 100%.

As to `CS(=O)(=O)c1ccc(-n2cnc(Br)c2-c2ccc(F)cc2)cc1` [Example 5, 4-Bromo-5-(4-fluorophenyl)-1-(4-methylsulfonylphenyl)imidazole], in data set [1], the inhibition at 10 µM came to 33.8%. Also, in data set [2], the inhibition at 1 µM worked out at 85.2% and the inhibition at 10 µM was 100%.

Turning to `CS(=O)(=O)c1ccc(-c2cnc(Cl)n2-c2ccc(F)cc2)cc1` [Example 7, 2Chloro-1-(4-fluorophenyl)-5-(4-methylsulfonylphenyl)imidazole], the inhibition at 10 µM in data set [1] is 60.1%; in data set [2], 100%. In data set [2], the inhibition at 1 µM is 85.6%.

As to `CS(=O)(=O)c1ccc(-c2cnc(C#N)n2-c2ccc(F)cc2)cc1` [Example 10, 1-(4-Fluorophenyl)-5-(4-methylsulfonylphenyl)imidazol-2-carbonitrile], the inhibition at 10 µM in data set [1] is 52.7%. In addition, in data set [2], the inhibition at 1 µM came to 74% and the inhibition at 10 µM turned out to be 100%.

Compound `Cc1ccc(-n2c(-c3ccc(S(C)(=O)=O)cc3)cnc2Cl)cc1` [Example 12, 2-Chloro-1-(4-methylphenyl)-5-(4-methylsulfonylphenyl)imidazole] came in with a melting point of 156 to 160 °C. The inhibition at 10 µM in data set [1] was determined as 70.6%. In addition, in data set [2], the inhibition at 1 µM came to 83.6% and the inhibition at 10 µM came to 100%.
